Results taken from publication PMC10009108, “Design, synthesis and screening of indole acetic acid-based tri-azo moieties as antioxidants, anti-microbial and cytotoxic agents” (Frontiers in Pharmacology, 2023).
Converted amounts (≈) assume the structure as drawn.

Legend:
[1] = tested on: Bacillus subtilis (ATCC-6633); test: Antibacterial assay, micro broth dilution; format: cell-based; design: key to Antibacterial activity, Bacillus subtilis: Activity: Active = Bacterial activity; --- = no activity; details: 25 μg/mL
Excerpt: (§1) The micro broth dilution method was used to establish the antibacterial potential of test samples against Staphylococcus aureus (ATCC-6538), Bacillus subtilis (ATCC-6633), Escherichia coli (ATCC-25922), Klebsiella pneumoniae (ATCC-1705), and Pseudomonas aeruginosa (ATCC-15442) and for the resistant strains of MRSA Staphylococcus aureus, P. aeruginosa and Escherichia coli. The procedure used is described by ([Sarker et al., 2007]). Bacterial inoculum was formed under aseptic conditions keeping the density near 5 × 10^4 CFU/mL in pre-autoclaved nutrient broth. Test samples of an aliquot of 5 µL were shifted to labeled wells of 96 well plates, and after that addition of 195 µL of nutrient broth; was accomplished. After that, a 2-fold serial dilution of every sample was arranged to get final concentrations of 12.5 μg/mL. Then, with the help of a micropipette, 195 µL of bacterial culture of respective strains was poured into each well; further advancement was incubating of plates for 30 min at the temperature of 37°C. […] Incubation of plates was again carried out at 37°C for 1 day, absorbance was noted, and net change in turbidity was the difference between two values of absorbance.
(§2) Schiff base tri-azo compounds were investigated for antibacterial potential. […] 6.25 μg/mL for 5b and 5g, and the least, Table 4 3.12 μg/mL was for 5f. […] Substituents with electron-withdrawing attributes, e.g., -NO2, -Cl, -OH on the aromatic ring, assert a great impact on the antibacterial activity of synthetic compounds. It is also observed that an increase in the number of -OH groups tend to enhance the activity ([Hosamani and Shingalapur, 2011]). Due to the difference in cell-wall composition of Gram + ve and -ve bacteria, different compounds show different features towards the same micro-organism ([Goszczyn’ska et al., 2015]).

[2] = tested on: Staphylococcus aureus (ATCC-6538); test: Antibacterial assay, micro broth dilution; format: cell-based; details: ATCC6538, read-out: S. aureus MIC
Excerpt: as §1, §2

[3] = tested on: Escherichia coli (ATCC-25922); test: Antibacterial assay, micro broth dilution; format: cell-based; details: ATCC25922, read-out: E. coli MIC
Excerpt: as §1, §2

[4] = tested on: Pseudomonas aeruginosa (ATCC-15442); test: Antibacterial assay, micro broth dilution; format: cell-based; details: ATCC15442
Excerpt: as §1, §2

[5] = Total antioxidant capacity (TAC assay); details: rank among the synthetic compounds
Procedure: This evaluation was based on the protocol by ([Bibi et al., 2011]). This mechanism’s key point is reducing Mo (VI) to Mo (V). A solution consisting of 4 mM Ammonium molybdate, 28 mM SodiumPhosphate, and 0.6 M Sulphuric acid is utilized, which forms Phosphate Molybdenum Complex which is green in color and gives absorption = […]. […] of the sample is added to […] of reagent, which is incubated at 95°C for one and a half hours and cooled to 25°C.
The antioxidant potential of test compounds was estimated by TAC &TRP assays. The spectrophotometric method was used to analyze the formation of the green-colored phosphomolibdenum compound. […] The findings are depicted in Figure 6.

Structure (SMILES)	MIC [2]	MIC [3]	MIC [4]	Antibacterial activity, Bacillus subtilis: Activity [1]	activity in the TAC assay (in words) [5]
S=c1[nH]nc(Cc2c[nH]c3ccccc23)n1N=Cc1ccc(Cl)cc1 [Compound 5c]		25 µg/mL (≈ 68 µM)			
O=[N+]([O-])c1ccc(C=Nn2c(Cc3c[nH]c4ccccc34)n[nH]c2=S)cc1 [Compound 5d]		25 µg/mL (≈ 66.1 µM)			
Oc1cccc(C=Nn2c(Cc3c[nH]c4ccccc34)n[nH]c2=S)c1 [Compound 5a]			12.5 µg/mL (≈ 35.8 µM)		
COc1cccc(C=Nn2c(Cc3c[nH]c4ccccc34)n[nH]c2=S)c1 [Compound 5b]			12.5 µg/mL (≈ 34.4 µM)	---	maximum activity

Continued, in another order:

MIC [2]	MIC [3]	MIC [4]	Structure (SMILES)	Antibacterial activity, Bacillus subtilis: Activity [1]	activity in the TAC assay (in words) [5]
25 µg/mL (≈ 68 µM)			S=c1[nH]nc(Cc2c[nH]c3ccccc23)n1N=Cc1cccc(Cl)c1 [Compound 5f]	---	
	25 µg/mL (≈ 71.5 µM)	3.12 µg/mL (≈ 8.93 µM)	Oc1ccc(C=Nn2c(Cc3c[nH]c4ccccc34)n[nH]c2=S)cc1 [Compound 5e]	---	
25 µg/mL (≈ 59 µM)			COc1cc(C=Nn2c(Cc3c[nH]c4ccccc34)n[nH]c2=S)cc(OC)c1OC [Compound 5g]	---	
